Assays:
StarD10 = target: T1, StarD10 (Homo sapiens, UniProt Q9Y365); assay: StarD10 inhibition assay; type: biochemical
T1 sequence (Q9Y365 1-291): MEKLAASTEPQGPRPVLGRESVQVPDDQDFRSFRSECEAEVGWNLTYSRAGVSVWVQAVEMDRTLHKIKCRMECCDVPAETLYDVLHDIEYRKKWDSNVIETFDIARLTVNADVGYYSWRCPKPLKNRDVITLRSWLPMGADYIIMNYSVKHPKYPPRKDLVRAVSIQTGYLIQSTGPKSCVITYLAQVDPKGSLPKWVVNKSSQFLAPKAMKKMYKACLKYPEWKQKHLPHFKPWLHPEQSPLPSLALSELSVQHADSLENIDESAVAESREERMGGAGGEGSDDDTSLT
Experimental: (§1) The compounds in Table 1 and 2 were assayed for their ability to inhibit PC-TP and StarD10, respectively, using a known assay method (see Wagle et al., 2008. Anal. Biochem. 383:85-92, which is incorporated herein by reference in its entirety). Further, certain compounds were also tested for their ability to inhibit StarD7 (see Table 2).

[1] = target: T2, purified recombinant His-tag PC-TP (Homo sapiens, UniProt Q9UKL6); assay: Surface plasmon resonance binding to immobilized PC-TP; conditions: Biacore 3000, CM5 chip, 150 s injection
T2 sequence (Q9UKL6 1-214): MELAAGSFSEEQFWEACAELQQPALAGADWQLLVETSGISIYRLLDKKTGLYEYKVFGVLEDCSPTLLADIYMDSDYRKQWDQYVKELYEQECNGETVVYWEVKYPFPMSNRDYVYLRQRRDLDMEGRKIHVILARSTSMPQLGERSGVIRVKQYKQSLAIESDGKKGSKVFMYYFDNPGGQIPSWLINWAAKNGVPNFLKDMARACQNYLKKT
Experimental: Compound 8 was injected into a Biacore 3000 surface plasmon resonance instrument with purified recombinant His-tag PC-TP immobilized to a carboxymethyl dextran 5 ([…]) chip for 150 s and allowed to dissociate. Each sensogram was overlaid and zeroed on the y-axis to the average baseline before injection. The start injection time for each sample was set to zero on the x-axis (see FIG. 2). The KD value was 5.0 μM.

PC-TP = target: T3, PC-TP (Homo sapiens, UniProt Q9UKL6); assay: PC-TP inhibition assay (Wagle et al. method); type: biochemical; conditions: Table 1, concentration value
T3 sequence (Q9UKL6 1-214): T2 sequence (Q9UKL6 1-214)
Experimental: as §1

StarD7 = target: T4, StarD7 (Homo sapiens, UniProt Q9NQZ5); assay: StarD7 inhibition assay; type: biochemical
T4 sequence (Q9NQZ5 78-370): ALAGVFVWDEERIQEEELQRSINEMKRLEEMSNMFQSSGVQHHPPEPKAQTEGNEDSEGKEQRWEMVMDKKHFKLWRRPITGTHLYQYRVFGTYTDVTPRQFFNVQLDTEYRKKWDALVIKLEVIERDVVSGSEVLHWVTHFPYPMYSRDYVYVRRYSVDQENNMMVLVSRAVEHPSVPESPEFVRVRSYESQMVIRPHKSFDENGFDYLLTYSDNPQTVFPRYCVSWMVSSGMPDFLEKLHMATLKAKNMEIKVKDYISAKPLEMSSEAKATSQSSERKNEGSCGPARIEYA
Experimental: as §1

[2] = test system: insulin signaling pathway in cultured primary human hepatocytes; assay: Activation of insulin signaling pathway in primary human hepatocytes (immunoblot); type: cell-based; conditions: serum starved hepatocytes, 60 minute exposure, doses of 0.05 and 0.10 μM, no insulin
Experimental: Cultured primary human hepatocytes (commercially obtained) were serum starved overnight followed by 60 minute exposure to A) Compound 4 or B) Compound 16 at the indicated concentrations. Inhibitors were dissolved in DMSO. Negative controls included Control (no additions) and DMSO alone. The positive control included DMSO plus insulin (50 nM) for 30 minutes. Cells were harvested and lysates were subjected to immunoblot analyses using antibodies, as indicated.

[3] = target: T5, purified recombinant PC-TP (Homo sapiens, UniProt Q9UKL6); assay: Displacement assay of PC-TP using pyrene-labeled PC; type: binding
T5 sequence (Q9UKL6 1-214): T2 sequence (Q9UKL6 1-214)
Experimental: Competition between the small molecule inhibitors and fluorescent pyrene-labeled phosphatidylcholine (PyrPC) for binding to PC-TP was measured using Pyr-PC fluorescent vesicles quenched with tetracyanoquinodimethane (TCNQ) (Lemmetyinen H. et al. 1989). Upon mixing of quenched Pyr-PC vesicles with purified recombinant PC-TP, the rise in Pyr-PC fluorescence reflects binding of fluorescently labeled phosphatidylcholine molecules to the active site of PC-TP. If the small molecule inhibitors enter the active site and prevent binding of phosphatidylcholine to PC-TP by competing the Pyr-PC, this should reduce the observed increase in Pyr-PC fluorescence.
The fluorescence of PyrPC monomer was measured at 392 nm on SpectraMax M5 plate-reader with excitation was set at 345 nm. Pyrene-labeled PC vesicles contained PyrPC, egg PC, and TCNQ in a molar ratio of 40:20:60. For PC and PyrPC competition assays, we used unlabeled PC vesicles composed of egg PC and TCNQ in a molar ratio of 55:45 or PC vesicles of varied lipid concentrations and PyrPC vesicles quenched with TCNQ (55:45). […] To determine the affinity of eggPC compared to PyrPC, we varied the concentration of egg PC in the assay as follows: 5, 11, 22, 27, 33, and 44 μM, and a fixed amount of PyrPC (44 μM). […] In the displacement assay, the increase in pyrene monomer fluorescence (ΔF) is proportional to the amount of [Pyr], pyrene-labeled PC bound to PC-TP. The maximal fluorescence increase (ΔFmax) at pyrene monomer emission peak (˜380-394 nm) is observed in the absence of inhibitor ([inh]=0) or unlabeled lipid ([PC]=0). The fluorescence reading of wells with PyrPC vesicles alone and Pyr-PC vesicles with inhibitor (highest background fluorescence) were used as control and subtracted as background.
As described in Van Paridon et al. 1987, by plotting ΔF as a function of ΔF·[inh]/[Pyr] […] Therefore, Krel (Compound 4/PC) can be calculated as Krel (Compound 4/PyrPC)/Krel (PC/PyrPC)=0.22.

| IC50 (StarD10) [µM] | Kd [1] [µM] | IC50 (PC-TP) [µM] | IC50 (StarD7) [µM] | Krel (Compound 4/PC) ([3]; calculated as Krel (Compound 4/PyrPC)/Krel (PC/PyrPC)) | Krel (Compound 4/PyrPC), relative affinity constant ([3]; inhibitor 5-75 μM, PyrPC 36 μM, PC-TP 300 nM, averaged from multiple experiments) | Compound | Activation of insulin signaling [2] | Effect on pyrene monomer fluorescence (Pyr-PC binding to PC-TP) ([3]; increasing inhibitor concentration) |
| --- | --- | --- | --- | --- | --- | --- | --- | --- |
| 14 | 5 | 6.5 |  |  |  | Cc1cc(C)nc(NS(=O)(=O)c2cccc(NC(=O)NC(=O)c3ccc(Cl)cc3Cl)c2)n1 [Compound 8, 2,4-dichloro-N-(3-(N-(4,6-dimethylpyrimidin-2-yl)sulfamoyl)phenylcarbamoyl) benzamide] |  |  |
| 12 |  | 4.1 | 63 | 0.22 | 1.1+/−0.36 | Cc1cc(C)nc(NS(=O)(=O)c2ccc(NC(=O)NC(=O)c3ccc(Cl)cc3Cl)cc2)n1 [Compound 4, 2,4-dichloro-N-(4-(N-(4,6-dimethylpynmidin-2-yl)sulfamoyl)phenylcarbamoyl) benzamide] | activated insulin signaling | diminishing fluorescence of pyrene monomer |

From patent publication US9126938B2, “Phosphatidylcholine transfer protein inhibitors” (The Brigham and Women's Hospital, Inc., priority 2009, dated 2015)
